Read-outs that look alike come from different tables or passages of the source.
What was measured:
[1] = biological target: RIPK1 (Homo sapiens (Human), UniProt Q13546); experiment: biochemical; type: biochemical
Experimental: In this example, compounds of the disclosure were evaluated using a biochemical assay using the ADP-Glo™ technology.
ADP-Glo™ (Promega, Madison, Wis., USA) reagents were thawed at ambient temperature. Kinase Detection Reagent was prepared by mixing kinase detection buffer with the lyophilized kinase detection substrate.
A […] stock volume of 5× Reaction Kinase Buffer was made by mixing 1000 μl of 1M MgCl2, 500 μl of 1M Tris-HCL pH7.4, 0.5 mg/ml (25 mg) of BSA, and 3475 μl of distilled H2O. A 3 ml 2× working stock volume of Reaction Kinase Buffer was made containing a final concentration of 100 μM DTT and 4 mM MnCl2.
Components of RIPK1 enzyme (Rigel Pharmaceuticals, South San Francisco, Calif., USA) were thawed on ice. Diluted RIPK1 was prepared in 1× Kinase Reaction Buffer (diluted from 2× buffer) to 31 ng/well.
1.0 ul of diluted compound was added to a 384 well plate in duplicate. […] The final reaction volume was 5.0 μl. The plate was quickly centrifuged and the reaction was incubated at 30° C. for 30 minutes. Adding 5 μl of ADP-Glo™ terminated the reaction. The plate was quickly centrifuged and the reaction was incubated at room temperature for 40 minutes. Kinase Detection Reagent was then added and incubated at room temperature for 30 minutes. The relative light unit (RLU) of kinase reaction was determined by luminescent (Luminescence 0.1 s) using a Wallac Victor2 Luminometer (PerkinElmer, Waltham, Mass., USA).

[2] = test system: U937 cells; experiment: U937 cell necroptosis assay (TNFa + zVAD, CellTiter-Glo recovery), functional human RIP1 assay; type: cell-based; conditions: Homo sapiens, U-937, 18 h, read-out: U937 Zvad TNF CTG Recovery, U937, TNFa + zVAD (IC50), U937 cells, zVAD-fmk, TNFa 2 ng/mL, 18 hours, CellTiter-Glo
Experimental: (§1) In this example, U937 and L929 cells were exposed to compounds of the present disclosure and a cell necroptosis assay was conducted to evaluate compound activity in functional human RIP1 and murine RIP1 assays.
(§2) U937 and L929 cells were obtained from the American Type Culture Collection (Manassa, Va., USA). Both cells were maintained in logarithmic growth phase in complete RPMI 1640 media (Sigma, ST Louis, Mo., USA) supplemented with 10% fetal bovine serum (Sigma, ST Louis, Mo., USA) at 37° C. with 5% CO2. For necroptosis assay, L929 cells were plated for 18 h in 100 μL/well medium at 10K cells/well in Costar 96-well black clear-bottom plates (Fisher Scientific, Hampton, N.H., USA); U937 cells were plated on the day of the assay in 50 μL/well medium containing 60 uM zVAD-fmk (Lonza, Basel, Switzerland) at 50K cells/well. Medium from L929 cells were removed from the 96-well plates and replaced with 50 μL/well new medium containing 40 uM zVAD-fmk. Each compound of the present disclosure evaluated in this example was serially diluted in DMSO from 2.5 mM in 4-fold dilutions, and then diluted 1:125 in complete medium. 50 μL/well 2× of the compound was then added to the cells in the plates. The cells were pre-incubated with the compound for 1 hour at 37° C. with 5% CO2 and before addition of 10 μL/well 11×TNFa (Peprotech, Rocky Hill, N.J., USA) to give a final concentration of 2 ng/mL for TNFa. The relative amount of necroptosis cells was determined by luminescent using a Wallac Victor2 Luminometer (PerkinElmer, Waltham, Mass., USA) and a CellTiter-Glo® Luminescent Cell Viability Reagent Assay (Promega, Madison, Wis., USA) added per manufacturer instructions after 18 hours of TNFa stimulation at 37° C. with 5% CO2. This example establishes that embodiments of the compounds described herein have unexpectedly potent activity against human RIP1 and murine RIP1, which allows their assessment in in vivo mouse models of disease.

[3] = test system: L929 cells; experiment: L929 cell necroptosis assay (TNFa + zVAD, CellTiter-Glo recovery), functional murine RIP1 assay; type: cell-based; conditions: Mus musculus, L929, 18 h, read-out: L929-CTG-recovery, L929, TNFa + zVAD (IC50), L929 cells, zVAD-fmk, TNFa 2 ng/mL, 18 hours, CellTiter-Glo
Experimental: as §1, §2

[4] = RIPK1 enzyme 31 ng/well, 30° C. for 30 minutes, luminescence, read-out: RIPK1 ADP-Glo Kinase (IC50)

RIPK1, sequence (Q13546 whole entry, species assumed): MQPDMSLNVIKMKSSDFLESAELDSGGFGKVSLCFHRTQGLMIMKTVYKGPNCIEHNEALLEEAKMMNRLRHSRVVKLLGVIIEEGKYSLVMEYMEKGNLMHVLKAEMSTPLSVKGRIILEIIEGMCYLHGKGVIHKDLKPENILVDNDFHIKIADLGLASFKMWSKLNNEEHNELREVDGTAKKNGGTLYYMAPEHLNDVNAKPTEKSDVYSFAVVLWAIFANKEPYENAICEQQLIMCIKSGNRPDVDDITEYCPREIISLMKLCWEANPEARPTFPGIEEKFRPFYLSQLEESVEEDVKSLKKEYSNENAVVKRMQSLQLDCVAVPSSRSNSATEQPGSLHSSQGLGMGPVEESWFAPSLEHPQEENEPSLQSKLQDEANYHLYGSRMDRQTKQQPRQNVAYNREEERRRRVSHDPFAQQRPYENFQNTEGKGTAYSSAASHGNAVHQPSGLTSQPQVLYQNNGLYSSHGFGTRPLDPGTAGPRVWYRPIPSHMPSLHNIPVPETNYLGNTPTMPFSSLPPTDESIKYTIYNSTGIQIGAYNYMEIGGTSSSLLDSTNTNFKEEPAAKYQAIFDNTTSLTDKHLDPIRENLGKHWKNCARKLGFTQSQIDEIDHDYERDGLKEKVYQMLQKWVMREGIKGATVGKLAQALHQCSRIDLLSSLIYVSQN

SMILES	IC50 [1, 4] [µM]	IC50 [2] [µM]	IC50 [3] [µM]	IC50 [1] [µM]
Cc1cn2c(n1)C(NC(=O)c1ncn(Cc3c(Cl)cccc3Cl)n1)CCc1ccccc1-2 (racemic) [Compound I-35, (±)-1-(2,6-Dichlorobenzyl)-N-(2-methyl-5,6-dihydro-4H-benzo[f]imidazo[1,2-a]azepin-4-yl)-1H-1,2,4-triazole-3-carboxamide]	2.08	2.68	10000	
O=C(N[C@H]1COc2ccccc2-n2c1noc2=O)c1cc(O)n(Cc2ccccc2)n1 [Compound I-75, 1-Benzyl-5-hydroxy-N-((4R)-1-oxo-4,5-dihydro-1H-benzo[b][1,2,4]oxadiazolo[4,3-d][1,4]oxazepin-4-yl)-1H-pyrazole-3-carboxamide]	10.6	10000	10000	
O=C(N[C@H]1COc2ccc(C#Cc3ccccn3)cc2-n2ccnc21)c1n[nH]c(Cc2ccccc2)n1 [Compound I-89, (R)-5-Benzyl-N-(9-(pyridin-2-ylethynyl)-4,5-dihydrobenzo[b]imidazo[1,2-d][1,4]oxazepin-4-yl)-1H-1,2,4-triazole-3-carboxamide]	0.108	0.0352	7.93	
O=C(NC1CCc2ccccc2-n2c1nc(Cl)c2Cl)c1n[nH]c(Cc2ccccc2)n1 (racemic) [Compound I-80, (±)-5-Benzyl-N-(1,2-dichloro-5,6-dihydro-4H-benzo[f]imidazo[1,2-a]azepin-4-yl)-1H-1,2,4-triazole-3-carboxamide]	1.87	83.4	10000	
O=C(NC1CCc2ccc(CN3CCN(c4ccncc4)CC3)cc2-n2ccnc21)c1ncn(Cc2c(Cl)cccc2Cl)n1 (racemic) [Compound I-47, (±)-1-(2,6-Dichlorobenzyl)-N-(9-((4-(pyridin-4-yl)piperazin-1-yl)methyl)-5,6-dihydro-4H-benzo[f]imidazo[1,2-a]azepin-4-yl)-1H-1,2,4-triazole-3-carboxamide]	0.0873	0.0257	9.5	
O=C(NC1CCc2ccc(N3CCC4(CCOCC4)CC3)cc2-n2ccnc21)c1n[nH]c(Cc2ccccc2)n1 (racemic) [Compound I-64, (±)-N-(9-(3-Oxa-9-azaspiro[5.5]undecan-9-yl)-5,6-dihydro-4H-benzo[f]imidazo[1,2-a]azepin-4-yl)-5-benzyl-1H-1,2,4-triazole-3-carboxamide]		0.0077	4.06	0.124
O=C(N[C@H]1CCc2ccc(N3CC4(CCOCC4)C3)cc2-n2ccnc21)c1n[nH]c(Cc2ccccc2)n1 [Compound I-86, (S)—N-(9-(7-Oxa-2-azaspiro[3.5]nonan-2-yl)-5,6-dihydro-4H-benzo[f]imidazo[1,2-a]azepin-4-yl)-5-benzyl-1H-1,2,4-triazole-3-carboxamide]	0.067	0.0119	3.45	
O=C(NC1CCc2ccc(N3CC4(CCOCC4)C3)cc2-n2ccnc21)c1ccn(Cc2ccccc2)n1 (racemic) [Compound I-85, (±)-N-(9-(7-Oxa-2-azaspiro[3.5]nonan-2-yl)-5,6-dihydro-4H-benzo[f]imidazo[1,2-a]azepin-4-yl)-1-benzyl-1H-pyrazole-3-carboxamide]	0.168	0.0309	1.35	
O=C(N[C@H]1CSc2ccccc2-n2c1noc2=O)c1cc(Cc2ccccc2)on1 [Compound I-28, 5-Benzyl-N-((4R)-1-oxo-4,5-dihydro-1H-benzo[b][1,2,4]oxadiazolo[4,3-d][1,4]thiazepin-4-yl)isoxazole-3-carboxamide]	0.0679	0.0165	10.7	
CC(C)(O)C#Cc1ccc2c(c1)-n1cnnc1C(NC(=O)c1n[nH]c(Cc3ccccc3)n1)CC2 (racemic) [Compound I-72, (±)-5-Benzyl-N-(9-(3-hydroxy-3-methylbut-1-yn-1-yl)-5,6-dihydro-4H-benzo[f][1,2,4]triazolo[4,3-a]azepin-4-yl)-1H-1,2,4-triazole-3-carboxamide]	0.219	0.708	10000	
CC(C)(O)C#Cc1ccc2c(c1)-n1nnnc1[C@@H](NC(=O)c1n[nH]c(Cc3ccccc3)n1)CO2 [Compound I-69, (R)-5-Benzyl-N-(9-(3-hydroxy-3-methylbut-1-yn-1-yl)-4,5-dihydrobenzo[b]tetrazolo[1,5-d][1,4]oxazepin-4-yl)-1H-1,2,4-triazole-3-carboxamide]	0.0601	0.787	10000	
O=C(NC1COc2ccccc2-n2cccc21)c1cc(Oc2ccccc2)ccn1 (racemic) [Compound I-54, (±)-N-(6,7-Dihydrobenzo[b]pyrrolo[1,2-d][1,4]oxazepin-7-yl)-4-phenoxypicolinamide]	0.582	1.25	10000	
O=C(NC1COc2ccccc2-n2cccc21)c1n[nH]c(Cc2ccc(F)cc2)n1 (racemic) [Compound I-37, (±)-N-(6,7-Dihydrobenzo[b]pyrrolo[1,2-d][1,4]oxazepin-7-yl)-5-(4-fluorobenzyl)-1H-1,2,4-triazole-3-carboxamide]	1.14	4.07	10000	
O=C(N[C@H]1CCc2ccc(N3CCC4(CCOCC4)CC3)cc2-n2ccnc21)c1n[nH]c(Cc2ccccc2)n1 [Compound I-83, (S)—N-(9-(3-Oxa-9-azaspiro[5.5]undecan-9-yl)-5,6-dihydro-4H-benzo[f]imidazo[1,2-a]azepin-4-yl)-5-benzyl-1H-1,2,4-triazole-3-carboxamide]	0.0435	0.0043	2.12	
O=C(NC1CCc2ccccc2-n2cnnc21)c1ncn(Cc2c(Cl)cccc2Cl)n1 (racemic) [Compound I-58, (±)-1-(2,6-Dichlorobenzyl)-N-(5,6-dihydro-4H-benzo[f][1,2,4]triazolo[4,3-a]azepin-4-yl)-1H-1,2,4-triazole-3-carboxamide]	0.0573	0.0743	10000	
O=C(N[C@H]1CSc2ccccc2-n2c1noc2=O)c1n[nH]c(Cc2ccc(F)cc2)n1 [Compound I-31, 5-(4-Fluorobenzyl)-N-((4R)-1-oxo-4,5-dihydro-1H-benzo[6][1,2,4]oxadiazolo[4,3-d][1,4]thiazepin-4-yl)-1H-1,2,4-triazole-3-carboxamide]	0.0158	0.014	5010	
O=C(N[C@H]1COc2ccc(N3CC4(CCOCC4)C3)cc2-n2ccnc21)c1n[nH]c(Cc2ccccc2)n1 [Compound I-87, (R)—N-(9-(7-Oxa-2-azaspiro[3.5]nonan-2-yl)-4,5-dihydrobenzo[b]imidazo[1,2-d][1,4]oxazepin-4-yl)-5-benzyl-1H-1,2,4-triazole-3-carboxamide]		0.0156	10000	0.0682
O=C(N[C@H]1CSc2ccccc2-n2nnnc21)c1n[nH]c(Cc2ccccc2)n1 [Compound I-24, (R)-5-Benzyl-N-(4,5-dihydrobenzo[b]tetrazolo[1,5-d][1,4]thiazepin-4-yl)-1H-1,2,4-triazole-3-carboxamide]	0.0272	0.0144	2.14	
Cc1cnc2n1-c1ccccc1CCC2NC(=O)c1ncn(Cc2c(Cl)cccc2Cl)n1 (racemic) [Compound I-44, (±)-1-(2,6-Dichlorobenzyl)-N-(1-methyl-5,6-dihydro-4H-benzo[f]imidazo[1,2-a]azepin-4-yl)-1H-1,2,4-triazole-3-carboxamide]	0.947	1.67	10000	

Source: patent US11667643B2, “RIP1K inhibitors” (priority 2020, dated 2023)
